Patent US20140045883A1, “ACK1 KINASE INHIBITION TO TREAT TRIPLE NEGATIVE BREAST CANCER” (H. Lee Moffitt Cancer Center and Research Institute, Inc., priority 2012, published 2014)
Read-outs that look alike come from different tables or passages of the source.

Tests used:
Ack1 [1] = molecular target: Ack1 (Homo sapiens, UniProt Q07912); type: cell-based; settings: MCF-7 and A2780-CP cells, AIM-100 overnight (3 μM), insulin or EGF stimulated
Method: (§1) FIGS. 3A-3B are images of immunoblots of lysates from serum starved MCF-7 and A2780-CP cells treated (or untreated) with insulin or EGF (10 ng/ml) and AIM-100 (3 μM, overnight) that were immunoblotted with pTyr176-AKT (top panel), pSer473-AKT (2nd panel), pThr308-AKT (3rd panel), pTyr284-Ack1 (4th panel) and tubulin (bottom panel).
(§2) To assess the potential inhibition of Ack1 activity, MCF-7 (breast) and A2780-CP (Ovary) cells were treated with AIM-100 overnight. Cells were either untreated or treated with Insulin (for 30 mins) or EGF (15 min) followed by immunoblotting of lysates with pTyr284-Ack1 antibody.

AKT = experiment: Immunoblot of AKT phosphorylation in insulin/EGF-treated MCF-7 and A2780-CP cells; type: cell-based; settings: AIM-100 overnight (3 μM), insulin or EGF stimulated
Method: as §1, §2

MDA-MB-231 cell line = experiment: Cell growth assay (WST1); type: cell-based; settings: MDA-MB-231, 72 hours, read-out: IG50 (cell growth)
Method: (§3) Experiment was performed twice with 8 replicates, a representative data set is shown.
(§4) To determine whether inhibition of the Ack1/AKT signaling pathway affects TNBC-derived cancer cell proliferation, MDA-MB-231 and MDA-MB-468 cell lines were treated with increasing concentrations of PLX-4032 or AIM-100. A cell growth assay was performed by adding solution of WST1 to 96 wells (5×10^3 cells) and incubation for 1 h. The cell viability as a function of mitochondrial activity in living cells was measured spectrophotometrically at a wavelength of 450 nm.

MDA-MB-468 cell line = experiment: Cell growth assay (WST1); type: cell-based; settings: MDA-MB-468, 72 hours
Method: as §3, §4

pTyr176-AKT = experiment: Affinity Purification coupled ELISA for pTyr176-AKT in MDA-MB-231; type: cell-based; settings: MDA-MB-231 cells treated with inhibitor
Method: FIG. 6 is a bar graph showing Affinity Purification coupled ELISA for pTyr176-AKT detection in TNBC derived cell line MDA-MB-231. MDA-MB-231 cell lysates were incubated with streptavidin beads with AKT peptide. The AKT peptides were eluted and phosphorylation was detected using ELISA.
Towards detecting pY176-AKT in TNBC derived cell lines, MDA-MB-231 (1×10^4 cells) were lysed in reaction buffer containing phosphatase and protease inhibitors and lysates were quantitated. Biotinylated AKT peptide was incubated with streptavidin beads for 1 hours, beads were washed and the AKT peptide coated beads were incubated with cell lysates for 1 hours at room temperature. The beads were washed in PBST and the bound peptides were eluted. To elute the bound biotinylated AKT peptide from Streptavidin Beads, Streptavidin Beads were resuspended in 10 mM NaCl containing solution followed by heating the mix at 75° C. for 2-3 minutes, as described in literature (33). The eluted AKT peptides were immobilized onto streptaviding plates and presence of phospho-peptides was detected by ELISA described above in step I.

xenograft tumor = experiment: Xenograft tumor growth; settings: in vivo
purified Ack1 kinase = purified Ack1 kinase (Homo sapiens, UniProt Q07912); settings: inhibitor 50 nM, Ack1 50 nM, 5 uM ATP, 1 hour
Sequence of purified Ack1 kinase (Q07912 whole entry): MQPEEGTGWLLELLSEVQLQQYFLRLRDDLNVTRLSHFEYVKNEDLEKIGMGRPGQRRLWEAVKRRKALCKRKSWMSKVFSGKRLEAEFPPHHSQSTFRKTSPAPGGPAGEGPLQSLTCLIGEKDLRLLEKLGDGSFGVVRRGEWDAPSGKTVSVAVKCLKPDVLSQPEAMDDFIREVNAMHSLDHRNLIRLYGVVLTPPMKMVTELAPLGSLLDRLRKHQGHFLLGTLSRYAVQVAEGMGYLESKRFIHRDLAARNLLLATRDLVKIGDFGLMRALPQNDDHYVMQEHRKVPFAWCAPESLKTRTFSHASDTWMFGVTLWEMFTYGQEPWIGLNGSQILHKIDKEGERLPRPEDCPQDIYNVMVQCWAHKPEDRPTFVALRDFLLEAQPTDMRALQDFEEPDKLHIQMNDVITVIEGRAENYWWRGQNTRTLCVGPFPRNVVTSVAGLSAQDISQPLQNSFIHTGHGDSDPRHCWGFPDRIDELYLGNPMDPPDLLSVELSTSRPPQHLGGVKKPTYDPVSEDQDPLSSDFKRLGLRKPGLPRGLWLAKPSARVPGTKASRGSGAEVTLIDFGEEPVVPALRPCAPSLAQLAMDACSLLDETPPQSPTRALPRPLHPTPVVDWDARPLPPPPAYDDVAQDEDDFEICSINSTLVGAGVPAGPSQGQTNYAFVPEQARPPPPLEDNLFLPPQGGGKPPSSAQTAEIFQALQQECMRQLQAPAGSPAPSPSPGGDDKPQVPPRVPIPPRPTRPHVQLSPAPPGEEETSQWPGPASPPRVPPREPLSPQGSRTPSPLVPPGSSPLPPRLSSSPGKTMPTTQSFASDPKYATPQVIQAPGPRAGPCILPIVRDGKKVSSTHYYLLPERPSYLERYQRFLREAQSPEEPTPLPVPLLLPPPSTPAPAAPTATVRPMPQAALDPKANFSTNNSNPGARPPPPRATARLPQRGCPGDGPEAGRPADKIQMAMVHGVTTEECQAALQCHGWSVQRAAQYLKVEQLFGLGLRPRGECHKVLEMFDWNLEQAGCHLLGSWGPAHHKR
Method: The peptides sequence is derived from the region that is recognized by Ack1 leading to AKT Tyr176-phosphorylation and activation (13, 15, 17). The phospho-AKT peptide was used as a positive control and as a standard for quantitation of pT176-AKT in tissue samples.
The AKT peptides were diluted to final concentration of 1 uM in phosphate buffered saline (PBS) and immobilized onto streptavidin plates (R & D systems) for 1 hour. […] After 1 hour of incubation, plates were washed in PBST and secondary antibody (HRP-conjugated anti-rabbit antibody diluted in BSA) was added. After 1 hour, plates were washed in PBST and devoped using OPD substrate (Sigma) and read at 450 nm.

Ack1 [2] = experiment: Ack1 autoactivation in transfected HEK293 cells (HA immunoprecipitation, pTyr immunoblot); settings: HEK293 cells transfected with HA-tagged Ack1 WT/point mutants, 5 uM overnight
Method: Immunoprecipitation with HA-beads followed by immunoblotting with pTyr (top and middle panel) or Ack1 (bottom panel) antibodies was performed.
Site directed mutagenesis was performed and HA-tagged point mutants were generated. HEK293 cells were transfected, grown in growth factor free media, followed by immunoprecipitation with HA-beads.

Sequence of Ack1 (Homo sapiens, UniProt Q07912) (Q07912 whole entry): as above

Compound: c1ccc(-c2oc3ncnc(NC[C@@H]4CCCO4)c3c2-c2ccccc2)cc1 [AIM-100]
- endogenous pTyr284-Ack1 levels (Ack1 [1]): significantly decreased
- AKT Tyr176/Ser473 and Thr308-phosphorylations (AKT): significant decrease
- IC50 (MDA-MB-231 cell line): ~16 µM
- cellular cytotoxicity (in words) (MDA-MB-468 cell line): rather resistant
- pTyr176-AKT levels (Affinity Purification Coupled ELISA) (pTyr176-AKT): significant decrease
- xenograft tumor growth (xenograft tumor): suppresses
- AKT Tyr176-phosphorylation (ELISA) (purified Ack1 kinase): significant decrease
- Ack1 activation (pTyr immunoblot) (Ack1 [2]): completely abrogated Ack1 activation

Compound: CCCS(=O)(=O)Nc1ccc(F)c(C(=O)c2c[nH]c3ncc(-c4ccc(Cl)cc4)cc23)c1F [PLX4032, Vemurafenib]
- IC50 (MDA-MB-231 cell line; Homo sapiens): ~13 µM
- IC50 (MDA-MB-468 cell line; Homo sapiens, read-out: IG50 (cell growth)): ~13 µM
- pTyr176-AKT levels (Affinity Purification Coupled ELISA) (pTyr176-AKT): significant decrease
- Ack1 activation (pTyr immunoblot) (Ack1 [2]): completely abrogated Ack1 activation
